Experimental findings from patent US12133527B2, “Insect and tick repellent formulations and methods of use thereof” (priority 2017, dated 2024) are described below.

One data set relates to skin of human subjects. Briefly: Human repeat insult patch test for skin irritation and sensitization. In kind it is in vivo. The note with it: positive control. How it is done: To determine the irritation and sensitization (contact allergy) potential of a test material after repeated application to the skin of human subjects three studies were conducted using the formulations of the invention comprising 2-undecanone, soybean oil, polysorbate 20, sorbitan oleate, oil of lemon eucalyptus and denatured alcohol (e.g., test materials).
Test materials to be tested under occlusive conditions were placed on an 8-millimeter aluminum Finn Chamber® (Epitest Ltd. Oy, Tuusula, Finland) supported on Scanpor® Tape (Norgesplaster A/S, Kristiansand, Norway) or an 8 mm filter paper coated aluminum Finn Chamber® AQUA supported on a thin flexible transparent polyurethane rectangular film coated on one side with a medical grade acrylic adhesive, consistent with adhesive used in state-of the-art hypoallergenic surgical tapes or a 7 mm IQ-ULTRA® closed cell system which is made of additive-free polyethylene plastic foam with a filter paper incorporated (It is supplied in units of 10 chambers on a hypoallergenic nonwoven adhesive tape; the width of the tape is 52 mm and the length is 118 mm) or other equivalents. Materials to be tested under semi-occlusive conditions were placed on a test strip with a Rayon/Polypropylene pad or on a 7.5 mm filter paper disc affixed to a strip of hypoallergenic tape (Johnson & Johnson 1 inch First Aid Cloth Tape).
Test materials to be tested in an open patch were applied and rubbed directly onto the back of the subject. Approximately 0.02-0.05 mL (in case of liquids) and/or 0.02-0.05 gm (in case of solids) of the test material was used for the studies. Liquid test material was dispensed on a 7.5 mm paper disk, which fit in the Finn Chamber.
Subjects were requested to bathe or wash as usual before arrival at the facility. Patches containing the test material were then affixed directly to the skin of the intrascapular regions of the back, to the right or left of the midline and subjects were dismissed with instructions not to wet or expose the test area to direct sunlight. Patches remained in place for 48 hours after the first application. Subjects were instructed not to remove the patches prior to their 48 hour scheduled visit. Thereafter, subjects were instructed to remove patches 24 hours after application for the remainder of the study.
This procedure was repeated until a series of nine (9) consecutive, 24-hour exposures had been made three (3) times a week for three (3) consecutive weeks. Prior to each reapplication, the test sites were evaluated by trained laboratory personnel. Following a 10-14 day rest period a retest/challenge dose was applied once to a previously unexposed test site.
Test sites were evaluated by trained laboratory personnel 48 and 96 hours after application.
In the event of an adverse reaction, the area of erythema and edema were measured. Edema was estimated by the evaluation of the skin with respect to the contour of the unaffected normal skin. Subjects were instructed to report any delayed reactions that might occur after the final reading.
Scoring scale and definition of symbols shown below are based on the scoring scheme according to the International Contact Dermatitis Research Group scoring scale [Rietschel, R. L., Fowler, J. F., Ed., Fisher's Contact Dermatitis (fourth ed.). […]

Another data set relates to insect or tick. Briefly: Duration of repellency of 2-undecanone alone (statement, no method). The conditions noted are these: unformulated.

`CCCCCCCCCCCCOS(=O)(=O)[O-].[Na+]` [2.0% Sodium Lauryl Sulfate Solution, Sodium Lauryl Sulfate]: in the data set on skin of human subjects (Study I), the “subjects with a Grade 1 delayed reaction” value came to 4 subjects and the “subjects with a Grade 1 reaction” value worked out at 35 subjects. In the data set on skin of human subjects (Study II), the “subjects with a Grade 1 reaction” value was 10 subjects. In the data set on skin of human subjects (Study III), the “subjects with Grade 1 reaction” value is “Two” and the “subjects with Grade 2 reaction” value is given as “two”.
Take `CCCCCCCCCC(C)=O` [Soybean 2-undecanone, 2-undecanone]: in the data set with insect or tick, the duration of repellency result is “less than 30 min”.
